Among the data in ChEMBL document CHEMBL3638997, “5-alkynyl-pyrimidines” (2013) are IC50 values, retold here.

For the experiment, the target named is Phosphatidylinositol 4,5-bisphosphate 3-kinase catalytic subunit alpha isoform (Homo sapiens, UniProt P42336). The experiment can be described thus: Filter-Binding-Assay: PI3Kalpha assay described herein provides IC50 values indicating the activity of the compounds inhibiting PI3 kinase alpha activity Inhibition of PI3 kinase is expected to be indicative of activity in treating conditions of excessive or anomalous cell proliferation, such as cancers. See also J. A. Engelman, Nature Reviews Cancer, 2009, 9, 550-562; A. Carnero, Expert Opin. ….
Sequence of Phosphatidylinositol 4,5-bisphosphate 3-kinase catalytic subunit alpha isoform (P42336 whole entry, canonical isoform): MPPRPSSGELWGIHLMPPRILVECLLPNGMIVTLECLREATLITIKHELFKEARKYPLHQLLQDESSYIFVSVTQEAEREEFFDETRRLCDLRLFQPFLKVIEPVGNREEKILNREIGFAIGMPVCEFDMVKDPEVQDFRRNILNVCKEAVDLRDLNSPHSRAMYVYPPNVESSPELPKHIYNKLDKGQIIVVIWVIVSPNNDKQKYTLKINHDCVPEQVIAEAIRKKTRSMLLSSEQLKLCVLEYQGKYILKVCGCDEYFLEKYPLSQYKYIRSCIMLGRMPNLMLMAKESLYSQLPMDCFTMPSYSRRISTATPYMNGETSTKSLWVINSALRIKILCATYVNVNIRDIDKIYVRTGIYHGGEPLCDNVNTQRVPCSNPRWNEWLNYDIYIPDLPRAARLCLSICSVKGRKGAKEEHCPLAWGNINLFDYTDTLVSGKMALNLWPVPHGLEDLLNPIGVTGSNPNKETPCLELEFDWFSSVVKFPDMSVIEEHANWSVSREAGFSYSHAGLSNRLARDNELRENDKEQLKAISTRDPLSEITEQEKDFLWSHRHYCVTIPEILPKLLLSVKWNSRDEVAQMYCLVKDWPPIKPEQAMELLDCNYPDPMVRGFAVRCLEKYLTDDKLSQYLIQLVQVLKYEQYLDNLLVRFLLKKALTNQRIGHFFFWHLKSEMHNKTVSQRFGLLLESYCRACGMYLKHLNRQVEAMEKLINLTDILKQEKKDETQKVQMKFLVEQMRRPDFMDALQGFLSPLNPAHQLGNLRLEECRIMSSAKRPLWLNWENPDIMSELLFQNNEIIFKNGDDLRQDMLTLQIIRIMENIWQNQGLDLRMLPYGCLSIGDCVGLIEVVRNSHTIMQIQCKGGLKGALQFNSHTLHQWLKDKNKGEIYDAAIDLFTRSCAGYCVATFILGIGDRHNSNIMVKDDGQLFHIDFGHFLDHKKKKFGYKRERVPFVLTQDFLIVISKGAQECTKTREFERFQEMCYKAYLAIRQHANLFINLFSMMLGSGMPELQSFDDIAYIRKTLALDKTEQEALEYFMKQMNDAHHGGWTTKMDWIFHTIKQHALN

`CCc1ncnc(N2CCC(O)(CC)CC2)c1C#Cc1ccc(N)nc1` returned an IC50 of 0.015 µM.

As usually defined, the IC50 is the concentration that gives 50% inhibition.
